Test results from US8026359B2, “Fungicidal heterocyclic amines” (E.I. du Pont de Nemours and Company, priority 2007, dated 2011).

Experiments:
Format in all cases: in vivo
[1] = system: Septoria nodorum; test: Test C: wheat glume blotch, preventive spray on wheat seedlings; conditions: 200 ppm, 100 = 100% disease control, 0 = no control relative to controls; for pest or weed control at 200 ppm: Parastagonospora nodorum, 216 h, read-out: Test C disease control rating
Outline: (§1)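 Compounds were dissolved in acetone (3% of final volume), then suspended in 50/50 acetone/purified water with 250 ppm Trem 014 surfactant. Plants were sprayed to run-off at 200 ppm (equivalent to 500 g/ha) or 40 ppm.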

[2] = system: Erysiphe graminis f. sp. tritici; test: Test A: wheat powdery mildew, preventive spray on wheat seedlings; conditions: 200 ppm, 100 = 100% disease control, 0 = no control relative to controls; for pest or weed control at 200 ppm: Blumeria graminis, 192 h, read-out: Test A disease control rating
Outline: as §1

[3] = system: Botrytis cinerea; test: Test F: tomato Botrytis, preventive spray on tomato seedlings; conditions: 200 ppm, 100 = 100% disease control, 0 = no control relative to controls; for pest or weed control at 200 ppm: Botrytis cinerea, 120 h, read-out: Test F disease control rating
Outline: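 Preventive run-off spray onto tomato seedlings at 200 ppm (equivalent to 500 g/ha) or 40 ppm. Suspensions: compound predissolved in acetone at 3% of final volume, then taken up in acetone/purified water 50/50 containing 250 ppm Trem® 014 surfactant.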

[4] = system: Fusarium graminearum; test: whole plant or invertebrate; conditions: for pest or weed control at 200 ppm: Fusarium graminearum, in Triticum aestivum, 192 h, read-out: Test E disease control rating; for Test E disease control rating: 200 ppm, 100 = 100% disease control, 0 = no control relative to controls
[5] = system: Venturia inaequalis; test: Test O: apple scab, preventive spray on apple seedlings; conditions: 100 ppm (100 g/ha, 1000 L/ha), inoculated the following day, 100 = 100% disease control, 0 = no control relative to controls
Description: (§2) General protocol for preparing test suspensions for Tests A-R: The test compounds were first dissolved in acetone in an amount equal to 3% of the final volume and then suspended at the desired concentration (in ppm) in acetone and purified water (50/50 mix) containing 250 ppm of the surfactant Trem® 014 (polyhydric alcohol esters). The resulting test suspensions were then used in tests A-R. In Tests A-M, compounds were sprayed as a 200 ppm test suspension (equivalent to a rate of 500 g/ha) or as a 40 ppm test suspension to the point of runoff on the test plants. In Tests N-R, compounds were sprayed as a 100 g/ha test suspension (equivalent to a rate of 100 ppm) on the test plants at an application volume of 1000 L/ha. The test suspension was sprayed on apple seedlings.

[6] = system: Septoria tritici; test: Test D: wheat leaf blotch, preventive spray on wheat seedlings; conditions: 200 ppm, 100 = 100% disease control, 0 = no control relative to controls; for pest or weed control at 200 ppm: Zymoseptoria tritici, 504 h, read-out: Test D disease control rating
Outline: as §1

[7] = system: Uncinula necator; test: Test N: grape powdery mildew, preventive spray on grape seedlings; conditions: 100 ppm (100 g/ha, 1000 L/ha), inoculated the following day, 100 = 100% disease control, 0 = no control relative to controls
Description: as §2, with “grape” for “apple”

[8] = system: Colletotrichum orbiculare; test: Test I: cucumber Colletotrichum anthracnose, preventive spray on cucumber seedlings; conditions: 100 = 100% disease control, 0 = no control relative to controls; for pest or weed control at 200 ppm: Colletotrichum orbiculare, 144 h, read-out: Test I disease control rating; for Test I disease control rating: 200 ppm
Outline: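 Preventive foliar spray to run-off on cucumber seedlings, at 200 ppm (stated as equal to 500 g/ha) or 40 ppm. Test suspensions were made in acetone/water 50/50 containing 250 ppm Trem 014, after first dissolving compound in acetone at 3% of final volume.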

[9] = system: Puccinia recondita f. sp. tritici; test: Test B: wheat leaf rust, preventive spray on wheat seedlings; conditions: 200 ppm, 100 = 100% disease control, 0 = no control relative to controls; for pest or weed control at 200 ppm: Puccinia recondita, 192 h, read-out: Test B disease control rating
Outline: as §1

[10] = system: Plasmopara viticola; test: Test R: grape downy mildew, preventive spray on grape seedlings; conditions: 100 ppm (100 g/ha, 1000 L/ha), inoculated the following day, 100 = 100% disease control, 0 = no control relative to controls
Description: as §2, with “grape” for “apple”, “seedlings. The following day the seedlings were inoculated with a spore suspension of Plasmopara viticola (the causal agent of grape downy mildew) and incubated in a saturated atmosphere at 20° C. for 24 h, then moved to a growth chamber at 20° C. for 7 days, after which time the test units were placed back into a saturated atmosphere at 20° C. for 24 h. Upon removal, disease ratings were made.” for “seedlings.”

[11] = system: Pythium aphanidermatum; test: Test M: bluegrass pythium blight, preventive spray on bluegrass seedlings; conditions: 200 ppm; 100 = 100% disease control, 0 = no control relative to controls
Description: as §2, with “was sprayed to the point of run-off on bluegrass” for “was sprayed on apple”, “run-off on bluegrass seedlings.” for “sprayed on apple seedlings.”

[12] = system: Phytophthora infestans; conditions: 200 ppm; 100 = 100% disease control, 0 = no control relative to controls
[13] = system: Plasmopara viticola; test: Test L: grape downy mildew, spray after inoculation of grape seedlings; conditions: 200 ppm; 100 = 100% disease control, 0 = no control relative to controls
Description: General protocol for preparing test suspensions for Tests A-R: The test compounds were first dissolved in acetone in an amount equal to 3% of the final volume and then suspended at the desired concentration (in ppm) in acetone and purified water (50/50 mix) containing 250 ppm of the surfactant Trem® 014 (polyhydric alcohol esters). The resulting test suspensions were then used in tests A-R. In Tests A-M, compounds were sprayed as a 200 ppm test suspension (equivalent to a rate of 500 g/ha) or as a 40 ppm test suspension to the point of runoff on the test plants. In Tests N-R, compounds were sprayed as a 100 g/ha test suspension (equivalent to a rate of 100 ppm) on the test plants at an application volume of 1000 L/ha. Grape seedlings were inoculated with a spore suspension of Plasmopara viticola (the causal agent of grape downy mildew) and incubated in a saturated atmosphere at 20° C. for 24 h. After a short drying period, the test suspension was sprayed to the point of run-off on the grape seedlings and then moved to a growth chamber at 20° C. for 6 days, after which time the test units were placed back into a saturated atmosphere at 20° C. for 24 h. Upon removal, disease ratings were made.

[14] = system: Rhizoctonia oryzae; test: Test J: turf brown patch, preventive spray on creeping bent grass seedlings; conditions: 200 ppm; 100 = 100% disease control, 0 = no control relative to controls
Description: General protocol for preparing test suspensions for Tests A-R: The test compounds were first dissolved in acetone in an amount equal to 3% of the final volume and then suspended at the desired concentration (in ppm) in acetone and purified water (50/50 mix) containing 250 ppm of the surfactant Trem® 014 (polyhydric alcohol esters). The resulting test suspensions were then used in tests A-R. In Tests A-M, compounds were sprayed as a 200 ppm test suspension (equivalent to a rate of 500 g/ha) or as a 40 ppm test suspension to the point of runoff on the test plants. In Tests N-R, compounds were sprayed as a 100 g/ha test suspension (equivalent to a rate of 100 ppm) on the test plants at an application volume of 1000 L/ha. The test suspension was sprayed to the point of run-off on creeping bent grass seedlings.

## COCC(C)Nc1nccc(-c2ncnc(Nc3cccc(Cl)c3)n2)n1 (stereo not shown) [Compound 1, N-(3-chlorophenyl)-4-[2-[(2-methoxy-1-methylethyl)amino]-4-pyrimidinyl]-1,3,5-triazine-2-amine]
[1]
  pest or weed control at 200 ppm: 100%
[2]
  pest or weed control at 200 ppm: 76%
[3]
  pest or weed control at 200 ppm: 98%
[4]
  pest or weed control at 200 ppm: 98%
[5]
  Test O disease control rating: 78%
[6]
  pest or weed control at 200 ppm: 0%
[7]
  Test N disease control rating: 90%
[8]
  pest or weed control at 200 ppm: 99%
[9]
  pest or weed control at 200 ppm: 96%
[10]
  Test R disease control rating: 26%

## Cc1cc(C)c(Nc2cc(-c3ccnc(NC4CCOCC4)n3)ccn2)c(Cl)c1 [Compound 90]
[1]
  Test C disease control rating: 100%
[2]
  Test A disease control rating: 98%
[3]
  Test F disease control rating: 99%
[4]
  Test E disease control rating: 100%
[6]
  Test D disease control rating: 47%
[7]
  Test N disease control rating: 98%
[8]
  Test I disease control rating: 93%
[9]
  Test B disease control rating: 99%
[10]
  Test R disease control rating: 98%

## COCC(C)Nc1nccc(-c2ccnc(Nc3cccc(C#N)c3)c2)n1 (stereo not shown) [Compound 42]
[11]
  Test M disease control rating: 0%
[1]
  Test C disease control rating: 94%
[2]
  Test A disease control rating: 0%
[3]
  Test F disease control rating: 75%
[12]
  Test K disease control rating: 0%
[4]
  Test E disease control rating: 0%
[6]
  Test D disease control rating: 9%
[13]
  Test L disease control rating: 16%
[14]
  Test J disease control rating: 0%
[8]
  Test I disease control rating: 92%
[9]
  Test B disease control rating: 88%

## COCC(C)Nc1cc(-c2ccnc(Nc3cccc(F)c3)n2)ncn1 (stereo not shown) [Compound 106, N^2-(3-fluorophenyl)-N^6′-(2-methoxy-1-methylethyl) [4,4′-bipyrimidine]-2,6′-diamine]
[11]
  Test M disease control rating: 0%
[1]
  pest or weed control at 200 ppm: 99%
[2]
  pest or weed control at 200 ppm: 24%
[3]
  pest or weed control at 200 ppm: 85%
[12]
  Test K disease control rating: 0%
[4]
  pest or weed control at 200 ppm: 32%
[6]
  pest or weed control at 200 ppm: 17%
[13]
  Test L disease control rating: 0%
[14]
  Test J disease control rating: 0%
[8]
  pest or weed control at 200 ppm: 37%
[9]
  pest or weed control at 200 ppm: 94%

## COC[C@H](C)Nc1nccc(-c2ncnc(Nc3cccc([N+](=O)[O-])c3)n2)n1 [Compound 21]
[1]
  Test C disease control rating: 97%
[3]
  Test F disease control rating: 72%
[4]
  Test E disease control rating: 87%
[5]
  Test O disease control rating: 99%
[6]
  Test D disease control rating: 13%
[7]
  Test N disease control rating: 57%
[8]
  Test I disease control rating: 96%
[9]
  Test B disease control rating: 99%
[10]
  Test R disease control rating: 79%

## COCC(C)Nc1cc(-c2ccnc(Nc3cccc([N+](=O)[O-])c3)n2)ncn1 (stereo not shown) [Compound 107, N^6′-(2-methoxy-1-methylethyl)-N^2-(3-nitrophenyl) [4,4′-bipyrimidine]-2,6′-diamine]
[11]
  Test M disease control rating: 0%
[1]
  pest or weed control at 200 ppm: 100%
[2]
  pest or weed control at 200 ppm: 0%
[3]
  pest or weed control at 200 ppm: 28%
[12]
  Test K disease control rating: 0%
[4]
  pest or weed control at 200 ppm: 89%
[6]
  pest or weed control at 200 ppm: 8%
[13]
  Test L disease control rating: 0%
[14]
  Test J disease control rating: 0%
[8]
  pest or weed control at 200 ppm: 72%
[9]
  pest or weed control at 200 ppm: 94%
